Source: patent US10172858B2, “Combination pharmaceutical compositions and uses thereof” (Intellikine LLC, priority 2011, dated 2019)
Where two headings read alike, the source gives them in different places.

Experiments:
PI3K α = PI3K α (Homo sapiens (Human), UniProt P42336); assay: PI3K α kinase assay; type: biochemical
PI3K β = PI3K β (Homo sapiens (Human), UniProt P42338); assay: PI3K β kinase assay; type: biochemical; conditions: Table 2
PI3K γ = PI3K γ (Homo sapiens (Human), UniProt P48736); assay: PI3K γ kinase assay; type: biochemical; conditions: Table 2
PI3K δ = PI3K δ (Homo sapiens (Human), UniProt O00329); assay: PI3K δ kinase assay; type: biochemical; conditions: Table 2
PC3 = PC3 tumor cell line proliferation assay; type: cell-based; conditions: Homo sapiens, PC-3; Table 2, in vitro IC50
Method: The assay is performed in a 96 well microtiter plate using Alamar Blue reduction. […] A compound disclosed herein is diluted in Tumor Cell Media and added in a 10 ul volume. […] A volume of 10 uL of Alamar Blue reagent is added to each well and plates are incubated for 3 hours at 37 C and 5% CO2. Alamar Blue fluoresce is read at 560Ex/590Em, and IC50 values are calculated using GraphPad Prism 5.

mTORC = mTORC (Homo sapiens (Human), UniProt P42345); assay: mTORC in vitro IC50 (Table 2); type: biochemical
Method: The compounds described herein and any other mTor inhibitors known in the art can be tested against recombinant mTOR (Invitrogen) in an assay containing 50 mM HEPES, pH 7.5, 1 mM EGTA, 10 mM MgCl2, 2.5 mM, 0.01% Tween, 10 μM ATP (2.5 μCi of μ-32P-ATP), and 3 μg/mL BSA. Rat recombinant PHAS-1/4EBP1 (Calbiochem; 2 mg/mL) is used as a substrate. Reactions are terminated by spotting onto nitrocellulose, which is washed with 1M NaCl/1% phosphoric acid (approximately 6 times, 5-10 minutes each). Sheets are dried and the transferred radioactivity quantitated by phosphorimaging.
For instance, one can use Invitrogen's LanthaScreen™ Kinase assay to test the inhibitors of mTOR disclosed herein. This assay is a time resolved FRET platform that measures the phosphorylation of GFP labeled 4EBP1 by mTOR kinase. The kinase reaction is performed in a white 384 well microtitre plate. The total reaction volume is 20 ul per well and the reaction buffer composition is 50 mM HEPES pH7.5, 0.01% Polysorbate 20, 1 mM EGTA, 10 mM MnCl2, and 2 mM DTT. In the first step, each well receives 2 ul of test compound in 20% dimethylsulphoxide resulting in a 2% DMSO final concentration. Next, 8 ul of mTOR diluted in reaction buffer is added per well for a 60 ng/ml final concentration. To start the reaction, 10 ul of an ATP/GFP-4EBP1 mixture (diluted in reaction buffer) is added per well for a final concentration of 10 μM ATP and 0.5 μM GFP-4EBP1. The plate is sealed and incubated for 1 hour at room temperature. […] The plate is sealed, incubated for 1 hour at room temperature, and then read on a plate reader set up for LanthaScreen™ TR-FRET. Data is analyzed and IC50s are generated using GraphPad Prism 5.

[1] = tested on: Endometrial cancer cells containing mutations in PTEN and FGFR2; assay: Combination therapy in a tumor mouse model, tumor volume; type: in vivo, mice; conditions: Paclitaxel alone 20 mg/kg Q1W intravenous
From the text: Endometrial cancer cells containing mutations in PTEN and FGFR2 were implanted into mice. Mice having tumor volumes of approximately 150 mm^3 were grouped by treatment schedule, with the start of treatment designated as day 0. Control mice received no treatment.
In a further example, mice were implanted with endometrial cancer cells as above. Mice having tumor volumes of approximately 150 mm^3 were grouped by treatment schedule, with the start of treatment designated as day 0. Control mice received no treatment.

pS6, cleaved PARP = assay: Western blot of pS6 and cleaved PARP (FIG. 6); type: cell-based; conditions: paclitaxel alone
[2] = tested on: HEC59 (paclitaxel resistant cell line) cells; assay: Growth of HEC59 cells (FIG. 9A); type: cell-based
[3] = tested on: mTORC1-dependent NRDG1 phosphorylation; assay: Western blot of NRDG1 phosphorylation (FIG. 4B); type: cell-based

Chain of PI3K γ (P48736 whole entry, species assumed): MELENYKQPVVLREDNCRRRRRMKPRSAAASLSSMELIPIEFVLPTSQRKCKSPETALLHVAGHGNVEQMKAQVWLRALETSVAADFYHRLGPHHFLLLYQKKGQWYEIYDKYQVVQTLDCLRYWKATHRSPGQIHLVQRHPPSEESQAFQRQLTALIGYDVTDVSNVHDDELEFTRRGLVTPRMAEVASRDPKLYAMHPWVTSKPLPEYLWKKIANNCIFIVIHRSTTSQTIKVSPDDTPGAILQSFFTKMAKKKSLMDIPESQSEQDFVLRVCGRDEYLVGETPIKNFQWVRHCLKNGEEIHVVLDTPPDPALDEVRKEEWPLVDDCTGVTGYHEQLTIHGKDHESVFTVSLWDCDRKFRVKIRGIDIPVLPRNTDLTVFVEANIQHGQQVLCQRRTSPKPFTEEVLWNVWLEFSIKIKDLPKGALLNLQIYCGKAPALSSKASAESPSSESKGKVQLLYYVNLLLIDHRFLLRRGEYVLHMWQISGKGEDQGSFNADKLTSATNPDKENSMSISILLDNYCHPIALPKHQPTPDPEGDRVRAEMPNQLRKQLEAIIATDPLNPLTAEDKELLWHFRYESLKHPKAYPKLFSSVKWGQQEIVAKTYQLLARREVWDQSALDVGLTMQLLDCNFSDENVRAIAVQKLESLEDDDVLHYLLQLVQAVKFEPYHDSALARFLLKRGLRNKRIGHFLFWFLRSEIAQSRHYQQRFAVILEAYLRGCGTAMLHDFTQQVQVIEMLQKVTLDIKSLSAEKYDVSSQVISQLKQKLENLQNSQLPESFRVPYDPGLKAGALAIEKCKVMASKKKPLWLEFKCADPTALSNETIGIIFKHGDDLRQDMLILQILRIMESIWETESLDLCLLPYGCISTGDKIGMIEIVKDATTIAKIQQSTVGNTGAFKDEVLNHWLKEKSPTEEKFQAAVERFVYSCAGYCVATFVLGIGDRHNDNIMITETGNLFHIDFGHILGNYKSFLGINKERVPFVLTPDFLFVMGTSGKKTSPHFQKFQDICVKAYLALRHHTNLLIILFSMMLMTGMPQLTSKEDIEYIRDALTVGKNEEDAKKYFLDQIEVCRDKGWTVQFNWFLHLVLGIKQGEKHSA
Chain of mTORC (P42345 1360-2549): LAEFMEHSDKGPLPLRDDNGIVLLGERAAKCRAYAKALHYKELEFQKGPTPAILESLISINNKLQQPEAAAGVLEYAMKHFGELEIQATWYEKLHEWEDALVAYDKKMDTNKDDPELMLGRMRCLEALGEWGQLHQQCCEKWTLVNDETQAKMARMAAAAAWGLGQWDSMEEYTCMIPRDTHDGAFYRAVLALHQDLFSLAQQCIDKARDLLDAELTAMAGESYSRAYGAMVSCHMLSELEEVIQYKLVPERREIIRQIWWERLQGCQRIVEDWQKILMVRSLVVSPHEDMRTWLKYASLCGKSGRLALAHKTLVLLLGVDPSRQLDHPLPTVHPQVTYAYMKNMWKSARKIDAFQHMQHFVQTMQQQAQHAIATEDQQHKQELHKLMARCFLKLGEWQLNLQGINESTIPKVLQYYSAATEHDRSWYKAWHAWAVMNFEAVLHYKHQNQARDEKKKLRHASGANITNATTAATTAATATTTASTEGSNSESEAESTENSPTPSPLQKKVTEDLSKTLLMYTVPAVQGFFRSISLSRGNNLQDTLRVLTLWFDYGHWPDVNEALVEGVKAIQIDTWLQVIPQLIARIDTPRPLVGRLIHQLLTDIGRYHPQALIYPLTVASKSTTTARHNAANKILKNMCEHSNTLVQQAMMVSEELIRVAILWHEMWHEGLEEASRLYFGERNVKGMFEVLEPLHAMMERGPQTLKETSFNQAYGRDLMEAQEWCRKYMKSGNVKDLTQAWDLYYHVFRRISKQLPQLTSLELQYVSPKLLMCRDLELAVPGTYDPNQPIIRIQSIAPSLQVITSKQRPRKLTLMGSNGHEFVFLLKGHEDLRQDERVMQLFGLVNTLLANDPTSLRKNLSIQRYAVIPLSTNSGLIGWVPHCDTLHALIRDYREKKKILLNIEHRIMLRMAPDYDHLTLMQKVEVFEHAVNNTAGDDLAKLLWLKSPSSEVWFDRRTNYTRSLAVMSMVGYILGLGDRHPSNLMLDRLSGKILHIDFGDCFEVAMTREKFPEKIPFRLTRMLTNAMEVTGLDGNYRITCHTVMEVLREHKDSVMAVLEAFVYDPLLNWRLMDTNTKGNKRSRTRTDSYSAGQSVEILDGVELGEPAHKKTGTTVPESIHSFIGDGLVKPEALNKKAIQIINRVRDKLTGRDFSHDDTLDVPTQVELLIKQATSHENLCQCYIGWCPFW
Chain of PI3K β (P42338 whole entry, species assumed): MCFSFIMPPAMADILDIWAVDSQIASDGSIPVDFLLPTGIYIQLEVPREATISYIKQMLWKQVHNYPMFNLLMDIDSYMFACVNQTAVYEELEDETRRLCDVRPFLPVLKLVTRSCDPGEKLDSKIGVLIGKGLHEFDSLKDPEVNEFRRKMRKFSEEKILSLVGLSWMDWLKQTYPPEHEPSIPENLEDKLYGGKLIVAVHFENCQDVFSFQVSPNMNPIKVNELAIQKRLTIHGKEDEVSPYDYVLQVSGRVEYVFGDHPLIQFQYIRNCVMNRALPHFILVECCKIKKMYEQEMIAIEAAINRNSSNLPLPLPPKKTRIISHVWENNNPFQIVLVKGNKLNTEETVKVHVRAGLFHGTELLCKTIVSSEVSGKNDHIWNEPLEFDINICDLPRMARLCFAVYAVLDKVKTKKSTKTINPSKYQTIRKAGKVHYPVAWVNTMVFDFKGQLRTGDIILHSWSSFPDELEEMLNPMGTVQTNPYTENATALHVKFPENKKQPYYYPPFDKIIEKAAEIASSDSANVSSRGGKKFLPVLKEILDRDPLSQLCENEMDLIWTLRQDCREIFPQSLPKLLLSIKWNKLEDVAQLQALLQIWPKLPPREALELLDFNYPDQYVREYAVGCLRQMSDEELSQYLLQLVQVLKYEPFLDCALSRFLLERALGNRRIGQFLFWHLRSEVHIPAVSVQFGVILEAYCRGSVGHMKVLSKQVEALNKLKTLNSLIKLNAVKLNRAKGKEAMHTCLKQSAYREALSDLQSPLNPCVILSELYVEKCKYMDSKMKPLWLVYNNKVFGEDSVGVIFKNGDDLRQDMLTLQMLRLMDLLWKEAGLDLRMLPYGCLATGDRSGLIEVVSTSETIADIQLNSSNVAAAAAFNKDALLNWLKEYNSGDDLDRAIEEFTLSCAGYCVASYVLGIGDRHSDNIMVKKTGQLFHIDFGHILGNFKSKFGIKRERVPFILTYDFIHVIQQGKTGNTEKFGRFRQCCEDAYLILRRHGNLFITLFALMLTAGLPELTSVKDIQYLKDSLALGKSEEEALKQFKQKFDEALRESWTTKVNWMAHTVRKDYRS
Chain of PI3K β (P27986 whole entry partner, species assumed): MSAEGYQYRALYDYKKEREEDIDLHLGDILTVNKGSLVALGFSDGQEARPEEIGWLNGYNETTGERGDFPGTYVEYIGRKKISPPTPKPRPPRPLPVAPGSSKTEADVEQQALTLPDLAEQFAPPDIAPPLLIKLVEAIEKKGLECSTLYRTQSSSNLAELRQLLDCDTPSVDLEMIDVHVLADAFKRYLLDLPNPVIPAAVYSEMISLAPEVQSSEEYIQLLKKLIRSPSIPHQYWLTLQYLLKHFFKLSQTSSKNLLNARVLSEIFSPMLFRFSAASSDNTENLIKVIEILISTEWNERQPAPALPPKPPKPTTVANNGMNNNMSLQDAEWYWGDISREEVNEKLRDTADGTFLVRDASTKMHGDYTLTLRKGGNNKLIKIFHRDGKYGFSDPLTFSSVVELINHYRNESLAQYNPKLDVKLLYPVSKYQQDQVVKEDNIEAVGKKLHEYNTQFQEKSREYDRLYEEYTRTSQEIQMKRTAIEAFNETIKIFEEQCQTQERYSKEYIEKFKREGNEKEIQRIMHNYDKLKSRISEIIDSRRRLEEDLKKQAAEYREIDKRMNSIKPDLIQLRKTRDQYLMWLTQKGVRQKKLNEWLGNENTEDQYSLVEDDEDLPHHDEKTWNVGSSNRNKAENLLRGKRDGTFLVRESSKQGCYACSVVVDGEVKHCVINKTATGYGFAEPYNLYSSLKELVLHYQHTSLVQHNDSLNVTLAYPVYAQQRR

Compound | IC50 (PI3K α; Table 2) | IC50 (PI3K β) | IC50 (PI3K γ) | IC50 (PI3K δ) | IC50 (PC3) | IC50 (mTORC) | increase in average tumor volume by day 22 [1] | average tumor volume by day 22 ([1]; from about 150 mm^3 at day 0) | pS6 level (pS6, cleaved PARP) | inhibition of the growth of HEC59 cells [2] | sensitivity of mTORC1-dependent NRDG1 phosphorylation [3] | IC50 (PI3K α)
Nc1ncnc2c1c(-c1cc3cccc(O)c3[nH]1)nn2C1CCN(C(=O)C2CC2)CC1 [Compound 41] | > 500 nM | > 500 nM | < 50 nM | > 500 nM | > 500 nM | < 10 nM |  |  |  |  |  | 
Nc1ncnc2c1c(-c1cc3cccc(O)c3[nH]1)nn2C1CCOCC1 [Compound 62] | > 500 nM | > 500 nM | > 500 nM | < 100 nM |  | < 5 nM |  |  |  |  |  | 
CC(=O)N1CCC(n2nc(-c3cc4cc(O)cc(Cl)c4[nH]3)c3c(N)ncnc32)CC1 [Compound 70] | < 500 nM | > 500 nM | < 100 nM | < 25 nM |  | < 5 nM |  |  |  |  |  | 
CC(=O)O[C@H]1C(=O)[C@@]2(C)[C@H]([C@H](OC(=O)c3ccccc3)[C@]3(O)C[C@H](OC(=O)[C@H](O)[C@@H](NC(=O)c4ccccc4)c4ccccc4)C(C)=C1C3(C)C)[C@]1(OC(C)=O)CO[C@@H]1C[C@@H]2O [Paclitaxel] |  |  |  |  |  |  | 17% | about 175 mm^3 | induction of pS6 | partial inhibition |  | 
CC(C)N1CCC(n2nc(-c3cc4cccc(O)c4[nH]3)c3c(N)ncnc32)CC1 [Compound 64] | > 500 nM | > 500 nM | < 500 nM | < 500 nM |  | < 25 nM |  |  |  |  |  | 
CO[C@H]1C[C@@H]2CC[C@@H](C)[C@@](O)(O2)C(=O)C(=O)N2CCCC[C@H]2C(=O)O[C@H]([C@H](C)C[C@@H]2CC[C@@H](O)[C@H](OC)C2)CC(=O)[C@H](C)/C=C(\C)[C@@H](O)[C@@H](OC)C(=O)[C@H](C)C[C@H](C)/C=C/C=C/C=C/1C [rapamycin] |  |  |  |  |  |  |  |  |  |  | not | 
Nc1ncnc2c1c(-c1cc3c(Cl)cccc3[nH]1)nn2C1CCOCC1 [Compound 48] | > 500 nM | > 500 nM | > 500 nM | > 500 nM |  | < 50 nM |  |  |  |  |  | 
Nc1ncnc2c1c(-c1cc3cc(O)cc(Cl)c3[nH]1)nn2C1CCOCC1 [Compound 68] | < 500 nM | > 500 nM | < 50 nM | < 25 nM |  | < 5 nM |  |  |  |  |  | 
CC(=O)N1CCC(n2nc(-c3cc4ccc(O)cc4[nH]3)c3c(N)ncnc32)CC1 [Compound 65] | < 50 nM | > 500 nM | < 25 nM | < 25 nM |  | < 10 nM |  |  |  |  |  | 
CN1CCN(C2CC(n3nc(-c4cc5cc(O)ccc5[nH]4)c4c(N)ncnc43)C2)CC1 (stereo not shown) [Compound 52] |  | > 500 nM | > 500 nM | < 500 nM |  | < 500 nM |  |  |  |  |  | > 500 nM
